Values quoted from earlier work, collected in patent publication US9082274B2, “Odor generation alarm and method for informing unusual situation” (priority 2008, dated 2015).
Where two headings read alike, the source gives them in different places.

What was measured:
[1] = orally administered; route not printed in b8
[2] = tested on: skin, eyes
[3] = tested on: domestic rabbits; conditions: AIT diluted to 0.1% to 10% with corn oil introduced into the eyes
[4] = tested on: rats; conditions: exposed for four hours
[5] = tested on: mice; conditions: exposed for four hours
[6] = tested on: mice; conditions: oral
[7] = tested on: humans
[8] = tested on: person; conditions: with respect to a person, ppm by amount of substance
[9] = tested on: rabbits
[10] = tested on: person; conditions: concentration in air, ppm by amount of substance

Row | SMILES | lethal dose (LD50) [1] [mg/kg] | effect when entering the eyes ([2]; eye contact) | effect when coming into contact with the skin ([2]; skin contact) | ocular findings after instillation [3] | lethal inhaled concentration (inhaled LC50) [4] [ppm] | lethal inhaled concentration (inhaled LC50) [5] [ppm] | orally administered lethal dose (LD50) [6] [mg/kg] | lachrymatory effect [7] | no observed effect concentration [8] [ppm] | acute dermal toxicity LD50 [9] [mg/kg] | solubility in water | concentration at which a person becomes unable to tolerate the atmosphere / strength of smell [10] [ppm] | concentration at which a person starts to notice a pungent odor [10] [ppm] | concentration from which a person recognizes the smell of wasabi [10] | concentration at which a person becomes unable to tolerate the atmosphere / strength of smell ([10]; listed as allyl isothiocyanate) [ppm]
1 | CS [methyl mercaptan] | 2.4 | reddening and pain when entering the eyes | reddening and pain of the skin | – | – | – | – | – | – | – | – | – | – | – | –
2 | C=CCN=C=S [AIT, allyl isothiocyanate] | – | – | – | nothing more than transient edema and conjunctival hyperemia | 173 | 155 | 310 | there is a lachrymatory effect on humans | 74.3 | 88 | does not dissolve easily in water | ≥ 10 | ~1 | around 5 ppm | 10
